Target: T1, Wild type glucocorticoid receptor (Rattus norvegicus, UniProt P06536)
T1 construct: Thus the full length receptor was removed from the VARO vector with BamHI and inserted into the SVL vector; expressed in transfected cells; host or cells: COS-7 (cytosol)
T1 sequence (P06536 1-795): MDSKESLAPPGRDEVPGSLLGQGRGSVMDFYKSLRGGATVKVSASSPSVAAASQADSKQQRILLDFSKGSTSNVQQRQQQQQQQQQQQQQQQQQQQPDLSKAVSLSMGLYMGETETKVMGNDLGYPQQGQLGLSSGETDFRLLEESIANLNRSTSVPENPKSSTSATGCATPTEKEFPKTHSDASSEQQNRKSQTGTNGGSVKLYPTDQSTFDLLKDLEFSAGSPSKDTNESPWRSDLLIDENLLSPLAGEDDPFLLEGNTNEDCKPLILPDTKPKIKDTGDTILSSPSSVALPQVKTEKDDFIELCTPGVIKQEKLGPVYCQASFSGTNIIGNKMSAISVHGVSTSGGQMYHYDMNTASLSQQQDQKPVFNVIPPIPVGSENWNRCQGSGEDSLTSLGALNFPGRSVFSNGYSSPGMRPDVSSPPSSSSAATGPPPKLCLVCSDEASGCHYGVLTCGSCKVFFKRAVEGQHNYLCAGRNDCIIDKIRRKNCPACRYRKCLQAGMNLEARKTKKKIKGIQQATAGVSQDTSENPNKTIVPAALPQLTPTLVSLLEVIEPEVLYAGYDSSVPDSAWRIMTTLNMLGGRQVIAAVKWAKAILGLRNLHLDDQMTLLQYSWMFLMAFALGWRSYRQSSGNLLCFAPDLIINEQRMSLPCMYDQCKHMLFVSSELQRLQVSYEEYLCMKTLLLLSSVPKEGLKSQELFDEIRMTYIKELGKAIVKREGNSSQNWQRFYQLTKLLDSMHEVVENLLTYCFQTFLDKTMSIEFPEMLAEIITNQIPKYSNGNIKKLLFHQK
Test: Competition binding assay with [3H]Dex, COS-7 cytosol, wild type receptor
Method: Monolayer cultures of COS-7 cells were grown in DMEM (Gibco) supplemented with 5% fetal bovine serum (FBS) (Biofluids) at 37° C. in a 5% CO2 incubator. Standard calcium phosphate transfection methods were used to introduce the wild type and mutant receptor expression vectors (pSVL) into COS-7 cells (100 mm plates [Costar] at a cell density of about 10^6 /plate were each treated with 10 μg of plasmid DNA). After ~16 hrs of incubation at 37° C. in a 5% CO2 incubator, the excess calcium phosphate and precipitate were removed by washing with phosphate buffered saline (PBS). […]
COS-7 cell cytosol containing the steroid-free receptors was prepared by cell lysis at -80° C. and centrifugation at 15,000 ×g and labeled as described for HTC cells (S. S. Simons and P. A. Miller, Biochem 23:6876-6882 (1984)). […] The specifically bound [^3 H]Dex was determined by first adding a 10% dextran-coated charcoal solution (added volume =20% of reaction solution volume) to remove free steroid and then subtracting the nonspecific binding seen in the presence of excess nonradioactive Dex. […]
The specificity of steroid binding was determined by Rodbard correction (Rodbard, 1973) of the data from a competition binding assay (S. S. Simons et al., Biochem. Biophys. Res. Comm. 86:793-800 (1979); Miller and Simons, 1988). […]

| Structure (SMILES) | Relative Ka of Steroid Binding to Receptor |
| --- | --- |
| C[C@]12CC[C@@H]3c4ccc(O)cc4CC[C@H]3[C@@H]1CC[C@@H]2O [17β-Estradiol, 17β-estradiol] | 0.029 ± 0.006 |
| CC#C[C@]1(O)CC[C@H]2[C@@H]3CCC4=CC(=O)CCC4=C3[C@@H](c3ccc(N(C)C)cc3)C[C@@]21C [RU486] | 3.4 ± 1.2 |
